Measurements published in patent US9266883B2, “Ring-fused bicyclic pyridyl derivatives as FGFR4 inhibitors” (Novartis AG, priority 2013, dated 2016).
Counter-ions that a name gives are not always drawn. Like-named read-outs stand apart in the source and are kept apart here.

Columns and labels:
[1] = target: FGFR4 (GST-FGFR4(388-802)) (Homo sapiens (Human), UniProt P22455); experiment: In-vitro biochemical kinase assay for FGFR4 (Caliper microfluidic mobility shift)
[2] = target: Tel-FGFR4 (Homo sapiens (Human), UniProt P22455); experiment: In vitro cellular kinase assay for FGFR4 (BaF3-Tel-FGFR4 cells, MSD capture ELISA of tyrosine phosphorylation); assay type: cell-based
Chain of Tel-FGFR4 (P22455 other isoform, or with tags, fused parts or gaps): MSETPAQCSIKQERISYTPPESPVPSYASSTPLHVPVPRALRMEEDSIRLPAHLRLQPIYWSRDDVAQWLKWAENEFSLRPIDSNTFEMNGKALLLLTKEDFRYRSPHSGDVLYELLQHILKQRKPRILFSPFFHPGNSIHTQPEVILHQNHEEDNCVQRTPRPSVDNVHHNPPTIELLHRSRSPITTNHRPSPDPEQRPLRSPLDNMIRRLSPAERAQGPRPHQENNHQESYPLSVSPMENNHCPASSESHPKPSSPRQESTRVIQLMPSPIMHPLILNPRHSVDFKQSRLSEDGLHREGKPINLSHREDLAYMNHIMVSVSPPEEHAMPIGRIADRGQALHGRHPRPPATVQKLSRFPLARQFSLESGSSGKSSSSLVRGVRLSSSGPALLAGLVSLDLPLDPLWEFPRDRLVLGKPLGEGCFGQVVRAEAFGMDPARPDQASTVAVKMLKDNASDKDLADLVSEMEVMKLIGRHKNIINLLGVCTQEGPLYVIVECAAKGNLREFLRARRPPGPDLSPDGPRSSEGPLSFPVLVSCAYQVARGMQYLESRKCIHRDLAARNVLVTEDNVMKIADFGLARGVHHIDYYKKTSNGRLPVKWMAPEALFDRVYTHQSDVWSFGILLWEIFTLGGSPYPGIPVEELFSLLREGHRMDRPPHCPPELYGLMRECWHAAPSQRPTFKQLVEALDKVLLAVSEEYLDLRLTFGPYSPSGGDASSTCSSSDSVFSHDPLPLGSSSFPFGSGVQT

[3] = biochemical FGFR4 assay, read-out: Biochemical IC50
[4] = Cellular BaF3 FGFR4 assay, read-out: Cellular IC50
[5] = measured and considered as outlier values, not included in the table or list, read-out: IC50 in the cellular BaF3 FGFR4 assay, outlier values
[6] = read-out: Biochemical FGFR4 IC50
[7] = BaF3-Tel-FGFR4 cells, 1 hour incubation, read-out: Cellular BaF3 FGFR4 IC50

Chain of FGFR4 (GST-FGFR4(388-802)) (P22455 388-802): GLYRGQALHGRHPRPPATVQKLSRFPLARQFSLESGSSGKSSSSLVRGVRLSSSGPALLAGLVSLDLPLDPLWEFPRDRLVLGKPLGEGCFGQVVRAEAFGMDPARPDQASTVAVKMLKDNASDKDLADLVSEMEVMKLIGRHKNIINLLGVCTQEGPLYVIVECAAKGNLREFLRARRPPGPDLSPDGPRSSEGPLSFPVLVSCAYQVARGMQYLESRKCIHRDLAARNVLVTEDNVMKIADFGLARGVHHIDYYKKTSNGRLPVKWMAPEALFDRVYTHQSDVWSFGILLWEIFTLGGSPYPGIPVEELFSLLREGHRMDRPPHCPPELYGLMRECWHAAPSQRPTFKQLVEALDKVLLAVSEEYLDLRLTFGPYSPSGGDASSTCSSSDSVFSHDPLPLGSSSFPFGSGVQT

SMILES	IC50 [1, 3]	IC50 [2, 4]	IC50 [2, 5]	IC50 [1, 6]	IC50 [2, 7]
CCNc1cc(NC(=O)N2CCCc3cc(CN4CCN(C)CC4=O)c(C=O)nc32)ncc1C#N [N-(5-cyano-4-(ethylamino)pyridin-2-yl)-7-formyl-6-((4-methyl-2-oxopiperazin-1-yl)methyl)-3,4-dihydro-1,8-naphthyridine-1(2H)-carboxamide]	3.4 nM	12 nM			
COc1nc(NC(=O)N2CCCc3cc(CN4CCN(C)CC4=O)c(C=O)nc32)ncc1C#N [N-(5-cyano-4-methoxypyrimidin-2-yl)-7-formyl-6-((4-methyl-2-oxopiperazin-1-yl)methyl)-3,4-dihydro-1,8-naphthyridine-1(2H)-carboxamide]	49 nM	75 nM			
CCN1CCN(Cc2cc3c(nc2C=O)N(C(=O)Nc2cc(NCCOC)c(C#N)cn2)CCC3)C(=O)C1 [N-(5-cyano-4-((2-methoxyethyl)amino)pyridin-2-yl)-6-((4-ethyl-2-oxopiperazin-1-yl)methyl)-7-formyl-3,4-dihydro-1,8-naphthyridine-1(2H)-carboxamide]	1.6 nM	9.8 nM			
CCC(=O)N(C)Cc1cc2c(nc1C=O)N(C(=O)Nc1cc(OC(C)C)c(C#N)cn1)CCC2 [N-(5-cyano-4-isopropoxypyridin-2-yl)-7-formyl-6-((N-methylpropionamido)methyl)-3,4-dihydro-1,8-naphthyridine-1(2H)-carboxamide]	0.9 nM	18.5 nM	> 3000 nM		
CC(C)Oc1cc(NC(=O)N2CCCc3cc(C(F)F)c(C=O)nc32)ncc1C#N [N-(5-cyano-4-isopropoxypyridin-2-yl)-6-(difluoromethyl)-7-formyl-3,4-dihydro-1,8-naphthyridine-1(2H)-carboxamide]	1.2 nM	21 nM			
CO[C@@H](C)COc1cc(NC(=O)N2CCCc3cc(CN4CCN(C)CC4=O)c(C=O)nc32)ncc1C#N [(S)-N-(5-cyano-4-(2-methoxypropoxyl)pyridin-2-yl)-7-formyl-6-((4-methyl-2-oxopiperazin-1-yl)methyl)-3,4-dihydro-1,8-naphthyridine-1(2H)-carboxamide]	2.2 nM	10.8 nM			
CC(C)Oc1cc(NC(=O)N2CCCc3cc(CN4CCCC4)c(C=O)nc32)ncc1C#N [N-(5-cyano-4-isopropoxypyridin-2-yl)-7-formyl-6-(pyrrolidin-1-ylmethyl)-3,4-dihydro-1,8-naphthyridine-1(2H)-carboxamide]	26.4 nM	854 nM			
O=Cc1ccc2c(n1)N(C(=O)Nc1cc(Cl)c(Cl)cn1)CCC2 [Example 2, N-(4,5-dichloropyridin-2-yl)-7-formyl-3,4-dihydro-1,8-naphthyridine-1(2H)-carboxamide]				30 nM	> 3000 nM
COC[C@@H](C)Oc1cc(NC(=O)N2CCCc3cc(CN4CCCC4=O)c(C=O)nc32)ncc1C#N [(R)-N-(5-cyano-4-((1-methoxypropan-2-yl)oxy)pyridin-2-yl)-7-formyl-6-((2-oxopyrrolidin-1-yl)methyl)-3,4-dihydro-1,8-naphthyridine-1(2H)-carboxamide]	0.3 nM	2.3 nM			
CCCCC(O)c1ccc(NC(=O)N2CCCc3ccc(C=O)nc32)nc1 (racemic) [Example 22, 7-formyl-N-(5-(1-hydroxypentyl)pyridin-2-yl)-3,4-dihydro-1,8-naphthyridine-1(2H)-carboxamide]				230 nM	2610 nM
COC[C@H](C)Oc1cc(NC(=O)N2CCCc3cc(CN(C)C(C)=O)c(C=O)nc32)ncc1C#N [(S)-N-(5-cyano-4-((1-methoxypropan-2-yl)oxy)pyridin-2-yl)-7-formyl-6-((N-methylacetamido)methyl)-3,4-dihydro-1,8-naphthyridine-1(2H)-carboxamide]	4 nM	12.1 nM			
CCN(Cc1cc2c(nc1C=O)N(C(=O)Nc1cc(NCCOC)c(C#N)cn1)CCC2)C(=O)CN(C)C [N-(5-cyano-4-((2-methoxyethyl)amino)pyridin-2-yl)-6-((2-(dimethylamino)-N-ethylacetamido)methyl)-7-formyl-3,4-dihydro-1,8-naphthyridine-1(2H)-carboxamide]	0.5 nM	5.5 nM			
N#Cc1cnc(NC(=O)N2CCCc3cc(CO)c(C=O)nc32)cc1OCC(O)CCCl (racemic) [Example 60, N-(4-(4-chloro-2-hydroxybutoxy)-5-cyanopyridin-2-yl)-7-formyl-6-(hydroxymethyl)-3,4-dihydro-1,8-naphthyridine-1(2H)-carboxamide]				0.8 nM	26 nM
COCCNc1cc(NC(=O)N2CCCc3cc(CN4CCC(N(C)C)C4)c(C=O)nc32)ncc1C#N (centres unmarked) [N-(5-cyano-4-((2-methoxyethyl)amino)pyridin-2-yl)-6-((3-(dimethylamino)pyrrolidin-1-yl)methyl)-7-formyl-3,4-dihydro-1,8-naphthyridine-1(2H)-carboxamide]	0.5 nM	63 nM			
N#Cc1cnc(NC(=O)N2CCCc3cc(CO)c(C=O)nc32)cc1OCC1CCCO1 (racemic) [Example 43, N-(5-cyano-4-((tetrahydrofuran-2-yl)methoxy)pyridin-2-yl)-7-formyl-6-(hydroxymethyl)-3,4-dihydro-1,8-naphthyridine-1(2H)-carboxamide]				5.2 nM	7.5 nM
COCCNc1cc(NC(=O)N2CCCc3cc(CN4CCN(C)C(=O)C4)c(C=O)nc32)ncc1C#N [N-(5-cyano-4-((2-methoxyethyl)amino)pyridin-2-yl)-7-formyl-6-((4-methyl-3-oxopiperazin-1-yl)methyl)-3,4-dihydro-1,8-naphthyridine-1(2H)-carboxamide]	1.3 nM	7.1 nM			
CC(C)Oc1cc(NC(=O)N2CCCc3cc(CN4CCNCC4=O)c(C=O)nc32)ncc1C#N [N-(5-cyano-4-isopropoxypyridin-2-yl)-7-formyl-6-((2-oxopiperazin-1-yl)methyl)-3,4-dihydro-1,8-naphthyridine-1(2H)-carboxamide]	2.1 nM	9.9 nM			
COC(C)(C)CNc1cc(NC(=O)N2CCCc3cc(CN(C)C(C)=O)c(C=O)nc32)ncc1C#N [N-(5-cyano-4-((2-methoxy-2-methylpropyl)amino)pyridin-2-yl)-7-formyl-6-((N-methylacetamido)methyl)-3,4-dihydro-1,8-naphthyridine-1(2H)-carboxamide]	0.7 nM	4.9 nM			
CC(C)Oc1cc(NC(=O)N2c3nc(C=O)c(Br)cc3CC[C@@H]2C)ncc1C#N [(S)-6-bromo-N-(5-cyano-4-isopropoxypyridin-2-yl)-7-formyl-2-methyl-3,4-dihydro-1,8-naphthyridine-1(2H)-carboxamide]	3.3 nM	95.5 nM			
COC[C@H](C)Oc1nc(NC(=O)N2CCCc3cc(CO)c(C=O)nc32)ncc1Cl [Example 58, (S)-N-(5-chloro-4-((1-methoxypropan-2-yl)oxy)pyrimidin-2-yl)-7-formyl-6-(hydroxymethyl)-3,4-dihydro-1,8-naphthyridine-1(2H)-carboxamide]				160 nM	898 nM
CN1CCC2(CCN(c3cc(NC(=O)N4CCCc5cc(CO)c(C=O)nc54)ncc3C#N)CC2)C1 [Example 45, N-(5-cyano-4-(2-methyl-2,8-diazaspiro[4.5]decan-8-yl)pyridin-2-yl)-7-formyl-6-(hydroxymethyl)-3,4-dihydro-1,8-naphthyridine-1(2H)-carboxamide]				21 nM	67 nM
CN1CCN(Cc2cc3c(nc2C=O)N(C(=O)Nc2cc(NCCOS(=O)(=O)O)c(C#N)cn2)CCC3)C(=O)C1 [Example 236, 2-((5-cyano-2-(7-formyl-6-((4-methyl-2-oxopiperazin-1-yl)methyl)-1,2,3,4-tetrahydro-1,8-naphthyridine-1-carboxamido)pyridin-4-yl)amino)ethyl hydrogen sulfate]			> 3000 nM	8.2 nM	1130 nM
COC[C@@H](C)Nc1cc(NC(=O)N2CCCc3cc(CN4CCOCC4=O)c(C=O)nc32)ncc1C#N [(R)-N-(5-cyano-4-((1-methoxypropan-2-yl)amino)pyridin-2-yl)-7-formyl-6-((3-oxomorpholino)methyl)-3,4-dihydro-1,8-naphthyridine-1(2H)-carboxamide]	2.4 nM	4.6 nM			
CN1CCN(Cc2cc3c(nc2C=O)N(C(=O)Nc2cc(OCCO)c(C#N)cn2)CCC3)C(=O)C1 [Example 199, N-(5-cyano-4-(2-hydroxyethoxyl)pyridin-2-yl)-7-formyl-6-((4-methyl-2-oxopiperazin-1-yl)methyl)-3,4-dihydro-1,8-naphthyridine-1(2H)-carboxamide]				2.3 nM	19.3 nM
CN1CCN(Cc2cc3c(nc2C=O)N(C(=O)Nc2cc(NCC(C)(C)O)c(C#N)cn2)CCC3)C(=O)C1 [N-(5-cyano-4-((2-hydroxy-2-methylpropyl)amino)pyridin-2-yl)-7-formyl-6-((4-methyl-2-oxopiperazin-1-yl)methyl)-3,4-dihydro-1,8-naphthyridine-1(2H)-carboxamide]	0.9 nM	4.8 nM			
COCCNc1cc(NC(=O)N2CCCc3cc(CN4C[C@H](N(C)C)CC4=O)c(C=O)nc32)ncc1C#N [(R)-N-(5-cyano-4-((2-methoxyethyl)amino)pyridin-2-yl)-6-((4-(dimethylamino)-2-oxopyrrolidin-1-yl)methyl)-7-formyl-3,4-dihydro-1,8-naphthyridine-1(2H)-carboxamide]	0.2 nM	6.1 nM			
N#Cc1cnc(NC(=O)N2CCCc3cc(CN4CC[C@@H](O)C4=O)c(C=O)nc32)cc1OCC(F)F [(R)-N-(5-cyano-4-(2,2-difluoroethoxyl)pyridin-2-yl)-7-formyl-6-((3-hydroxy-2-oxopyrrolidin-1-yl)methyl)-3,4-dihydro-1,8-naphthyridine-1(2H)-carboxamide]	3.7 nM	7.9 nM			
